Each block holds one compound with its values, some of them ahead of it. Numbered stars: 1 amine (or outer) side, 2 acyl side, 3 side chain; on linkers, the order of the positions; unused ones are H or OH. Bridge positions count the residues as written; N and C are the ends. Square brackets hold non-standard residues; d marks the D form. Peptide text beside a SMILES is read from it. I, II: the chains in the order shown. X1 = O=C(c1ccccc1)c1cccc(N(CC(=O)[*:2])[*:1])c1; N(4-BzPh)Gly = O=C(O)CNc1ccc(C(=O)c2ccccc2)cc1; Gly(N-piperonyl) = O=C(O)CNCc1ccc2c(c1)OCO2; Nleu = CC(C)CNCC(=O)O; Nlys = NCCCCNCC(=O)O; Nme = COCCNCC(=O)O; Sar = CNCC(=O)O
Tests used:
vimentin [1] = target: T1, vimentin (Homo sapiens, UniProt P08670); assay: ELISA-like binding assay to vimentin
T1 sequence (P08670 whole entry): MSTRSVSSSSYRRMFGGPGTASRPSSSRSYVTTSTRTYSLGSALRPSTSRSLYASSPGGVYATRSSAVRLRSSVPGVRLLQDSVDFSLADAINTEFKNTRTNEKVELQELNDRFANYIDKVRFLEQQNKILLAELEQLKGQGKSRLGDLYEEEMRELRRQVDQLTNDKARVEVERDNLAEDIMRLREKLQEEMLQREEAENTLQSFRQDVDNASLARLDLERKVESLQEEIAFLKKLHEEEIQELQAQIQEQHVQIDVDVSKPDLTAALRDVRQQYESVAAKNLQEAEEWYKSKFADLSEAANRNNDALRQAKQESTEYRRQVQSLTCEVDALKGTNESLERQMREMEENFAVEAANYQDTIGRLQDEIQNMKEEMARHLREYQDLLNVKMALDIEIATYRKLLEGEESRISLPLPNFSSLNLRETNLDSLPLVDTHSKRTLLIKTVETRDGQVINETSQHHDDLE
Protocol: To identify minimum pharmacophore of JM3A (the most important residues directly needed for protein binding), an alanine/sarcosine scan was done.
Next, Applicant compared binding activity between L2 (D-ala) and JM3ABPD1 by employing ELISA-like binding assay in a concentration between 10 nM to 10 μM.

H1299 cells [2] = type: cell-based
Protocol: Next, Applicant evaluated the anti-proliferative activity of these peptoid dimers via standard MTS assays on non-small cell lung cancer (NSCLC) H1299 cells, which have high vimentin expression.
After 18 hours, the activity reached the maximum (IC50˜6 μM) (FIG. 21C).

H1299 cells [3] = assay: wound healing (cell migration) assay; type: cell-based; set-up: inhibition of cell migration: dose or concentration left out as unconfirmed
Protocol: FIGS. 22A-22B provide data related to the characterization of L2 (D-ala), JM3A-BPD1, and JM3A-BP. […] H1299 cells were cultured to form a monolayer in 24-well plate. A scratch was made and wells were treated with L2 (D-ala), JM3A-BPD1. […]
Since vimentin has been identified as an important biomarker of mesenchymal cells during the epithelial-mesenchymal transition (EMT) process. The EMT process can endow epithelial cells with stemness as well as invasion and migration properties. Therefore, Applicant would like to investigate how L2 (D-ala) targeting vimentin can impact cancer stem cells activity. The wound-healing assay indicates the mobility/motility of cells, which is a hallmark measurement of cancer stem cells. The L2 (D-ala), JM3A-BPD1, JM3A-BP, and control compound were used to study the effects on cell migration via wound healing assay. […] Both JM3A-BP monomer and control compounds had no effect on cell migration.

H460 cells = assay: colony formation assay; type: cell-based; details: for colony formation: 7 days, at 20 μM
Protocol: FIGS. 23A-23B provide additional data related to the characterization of L2 (D-ala), JM3A-BPD1, and JM3A-BP. […] FIG. 23B provides a quantification of the colonies after a 7-day incubation treatment.
Colony formation is a standard assay to assess the activity of cancer stem cells. When cancer cells are seeded in a low number, normal cancer cells die due to the loss of cell-cell communications while cancer stem cells can survive and form colonies in isolation. Applicant performed colony formation assay on H460 cells to study how L2 (D-ala) can affect cancer stem cells activity. The H460 cells were seeded and treated with L2 (D-ala), JM3A-BPD1, JM3A-BP, and control compounds from day 1. After 7 days of incubation, colonies were carefully counted and plotted.

[4] = test system: vimentin expressing cells; assay: magnetic bead pulldown of cells with quantification; type: cell-based, human; details: HBEC3^p53,KRAS,cMYC vs HBEC3-KT; NAD(P)H, dityrosine, MTS readout
Protocol: JM3A can be utilized as an early cancer biomarker to develop simple diagnostic tools such as reading the cells auto fluorescence markers or quantifying the cells using MTS assay. Applicant performed the pulldown assay using JM3A to HBEC3-KT and HBEC3^p53,KRAS,cMYC cells. The Biotin-JM3A compound was mounted on streptavidin coated magnetic beads and 1 million cells (HBEC3-KT and HBEC3^p53,KRAS,cMYC cells each) were incubated for 1 hour. Next, bound cells were pulled using magnet.
The difference of number of cells pulled down were quantified for NAD (P) H (FIG. 11A) and Dityrosine (FIG. 11B) expression. Also to the pulldown cells MTS reagent was added and number of cells were quantified (FIG. 11C).

HBEC3-KT cells = assay: on-bead cell binding, normal cells; type: cell-based, human; details: JM3A on tentagel beads, green stained cells, separately and as mixture
Text: (§1) The compound JM3A was resynthesized on tentagel beads and equilibrated with HBEC3^p53,KRAS,cMYC (red stained) cells and HBEC3-KT (green stained) cells separately and also as a mixture.

vimentin [5] = target: T1, vimentin; assay: cross-linking, magnetic-bead pulldown and western blot on cells; type: binding; set-up: from tissue; host or cells: human early cancer tissue and normal tissue cross-sections; details: western blot
Protocol: For pulldown assay, the JM3A compound was synthesized with Biotin on C-terminal and benzophenone on its N-terminal (FIG. 7A). The compound was first mounted on streptavidin magnetic beads, followed by incubation of the cells HBEC3^p53,KRAS,cMYC and HBEC3-KT for 1 hour. Bound cells were separated using magnetic beads and cross-linked using UV. The cells were then lysed, and the proteins were separated by electrophoresis and visualized by silver staining (FIG. 7B). The unique band at around 60 kDa in the JM3A-bound sample, which was not present in whole cell lysis of HBEC3-KT cells or in the Control-PC462 compound pulldown, was analyzed by standard proteomics technique.
To reconfirm the JM3A-vimentin interaction, western blot analysis of samples from cross-linking and magnetic-bead pulldown assay with normal cells (HBEC3-KT) and transformed cells (HBEC3^p53,KRAS,cMYC) were performed (FIG. 10A). Pulldown assay was performed on normal and transformed cells using JM3A and control PC462. All the pulldown fractions were run on western-blot and compared with whole-cell lysis of HBEC3-KT and HBEC3^p53,KRAS,cMYC cells.

[6] = target: T2, commercially available vimentin protein (Homo sapiens, UniProt P08670); assay: magnetic-bead pulldown and western blot with commercially available vimentin protein; type: binding; details: western blot
T2 construct: purchased
T2 sequence (P08670 whole entry): as above
Text: To further confirm of JM3A specificity, the western blot assay was repeated using commercially available vimentin protein (FIG. 10B). […] This JM3A bound band disappeared when this binding was competed (blocked) with 10× free JM3A, and 5× free vimentin antibody. […] The results were further confirmed by running pure protein as reference band and JM3A transformed cells pulldown proteins.

[7] = test system: HBEC3^p53,KRAS,cMYC cells; assay: on-bead cell binding, transformed cells; type: cell-based, human; details: JM3A on tentagel beads, red stained cells, separately and as mixture
Text: as §1

vimentin [8] = target: T1, vimentin; assay: immunohistochemical detection of vimentin in tissues; set-up: from tissue; host or cells: human early cancer tissue and normal tissue cross-sections; details: IHC
Protocol: In a more clinically applicable set up, Applicant detected vimentin expression using JM3A in early cancer tissues from human samples using immunohistochemistry (IHC) experiments. Biotin-JM3A was incubated with those tumor tissue cross-sections compared to normal tissues for 1 hour and visualized by streptavidin Q-dots 655 under fluorescent microscope using Long-pass filter (FIG. 11D).

[9] = target: Vimentin protein (His-tag) (Homo sapiens, UniProt P08670); assay: on bead protein binding assay; details: anti-His Alexa 647 detection
Sequence of Vimentin protein (His-tag) (P08670 whole entry): as above
Protocol: To reconfirm the JM3A-vimentin interaction, an on bead protein binding assay was performed. Vimentin protein (His-tag) was screened with compound JM3A (on tentagel beads) and visualized using a secondary antibody (Anti-His Alexa 647) (FIG. 9A).

H2009 = assay: MTS assay on H2009 cells; type: cell-based; details: H2009, vimentin moderate expression
Text: (§2) In order to investigate the broader applicability of vimentin targeting in NSCLC cells, Applicant performed the same MTS studies on different lung cancer models with various vimentin expressions. These cell lines included H460 (Carcinoma, large cell lung cancer), H2009 (Adenocarcinoma, Stage 4), H358 (Bronchioalveolar Carcinoma, NSCLC), H2122 (Adenocarcinoma, NSCLC), and normal bronchial epithelial HBEC3KT cells.

H358 = assay: MTS assay on H358 cells; type: cell-based; details: H358, vimentin moderate expression
Text: as §2

H2122 = assay: MTS assay on H2122 cells; type: cell-based; details: H2122, vimentin low expression
Text: as §2

H460 = assay: MTS assay on H460 cells; type: cell-based; details: H460, vimentin high expression
Text: as §2

[10] = test system: normal bronchial epithelial HBEC3KT cells; assay: MTS assay on normal bronchial epithelial cells; type: cell-based, human
Text: as §2

SMILES: COCCN(CC(=O)NC(CCCCN)C(=O)NC(CCSC)C(=O)NCCCCC(NC(=O)C(CCSC)NC(=O)C(CCCCN)NC(=O)CN(CCOC)C(=O)CN(Cc1ccc2c(c1)OCO2)C(=O)CN(CC(C)C)C(=O)CN(CCCCN)C(=O)CN(CCCCN)C(=O)CN(CC(C)C)C(=O)CNc1ccc(C(=O)c2ccccc2)cc1)C(N)=O)C(=O)CN(Cc1ccc2c(c1)OCO2)C(=O)CN(CC(C)C)C(=O)CN(CCCCN)C(=O)CN(CCCCN)C(=O)CN(CC(C)C)C(=O)CNc1ccc(C(=O)c2ccccc2)cc1 (stereo not shown) [JM3A-BPD1] (I: H-[N(4-BzPh)Gly][Nleu][Nlys][Nlys][Nleu][Gly(N-piperonyl)][Nme]KMK-NH2 / II: H-[N(4-BzPh)Gly][Nleu][Nlys][Nlys][Nleu][Gly(N-piperonyl)][Nme]KM; amide I:10-II:C; configuration not given here)
inhibition of cell migration (H1299 cells [3]): moderately inhibit | colony formation (H460 cells): some colony disruption

SMILES: COCCN(CC(=O)NC(CCCCN)C(=O)NC(CCSC)C(N)=O)C(=O)CN(Cc1ccc2c(c1)OCO2)C(=O)CN(CC(C)C)C(=O)CN(CCCCN)C(=O)CN(CCCCN)C(=O)CNCC(C)C (stereo not shown) [JM3A] (H-[Nleu][Nlys][Nlys][Nleu][Gly(N-piperonyl)][Nme]KM-NH2; configuration not given here)
pulldown of vimentin expressing cells [4]: can be pulled down | binding of beads to cells (HBEC3-KT cells): not to green stained cells | pulldown of vimentin protein (vimentin [5]; normal cells (HBEC3-KT)): not in normal cells | pulldown of vimentin protein (vimentin [5]; transformed cells (HBEC3^p53,KRAS,cMYC)): pulldown only with JM3A in transformed cells | interaction with and pulldown of vimentin protein [6]: strong interaction and pulldown of vimentin protein | binding of beads to cells [7]: bound only to red stained cells | detection of vimentin overexpression (vimentin [8]; early cancer tissues): present | detection of vimentin overexpression (vimentin [8]; normal tissues): absent | binding of histidine-tagged vimentin to on-bead compound [9]: showed binding

SMILES: COCCN(CC(=O)N[C@@H](CCCCN)C(=O)N[C@H](C)C(=O)NCC(=O)NCCCC[C@H](NC(=O)CNC(=O)[C@@H](C)NC(=O)[C@H](CCCCN)NC(=O)CN(CCOC)C(=O)CN(Cc1ccc2c(c1)OCO2)C(=O)CN(CC(C)C)C(=O)CN(CCCCN)C(=O)CN(CCCCN)C(=O)CN(CC(C)C)C(=O)CNc1cccc(C(=O)c2ccccc2)c1)C(N)=O)C(=O)CN(Cc1ccc2c(c1)OCO2)C(=O)CN(CC(C)C)C(=O)CN(CCCCN)C(=O)CN(CCCCN)C(=O)CN(CC(C)C)C(=O)CNc1ccc(C(=O)c2ccccc2)cc1 [L2 (D-ala)] (I: H-[X1][Nleu][Nlys][Nlys][Nleu][Gly(N-piperonyl)][Nme]K[dA]GK-NH2 / II: H-[N(4-BzPh)Gly][Nleu][Nlys][Nlys][Nleu][Gly(N-piperonyl)][Nme]K[dA]G; amide I:11-II:C; N-terminus and C-terminus assumed)
anti-proliferation activity (in words) (H2009): medium activity | effect of extension of treatment time on proliferation (H1299 cells [2]; H1299 cells, after 18 hours): no significant impact | anti-proliferation potency (in words) (H1299 cells [2]; H1299 cells, treatment 6 hours): improvement in potency | anti-proliferation activity (in words) (H358): medium activity | anti-proliferation activity (in words) (H2122): lowest activity | concentration from which cell migration is inhibited (H1299 cells [3]): 3 µM | inhibition of cell migration (H1299 cells [3]): significantly inhibit | Kd improvement relative to JM3A-BPD1 (vimentin [1]; 10 nM to 10 μM): approximately 10 times | concentration from which colony formation is disrupted (H460 cells; 7 days of incubation): 1 µM | colony formation (H460 cells): inhibit all colonies | anti-proliferation activity (in words) (H460): best activity | anti-proliferation activity (in words) [10]: inactivity

Next, values leading:

binding to vimentin (in words) (vimentin [1]; comparison of derivatives): highest binding affinity
SMILES: COCCN(CC(=O)NC(CCCCN)C(=O)NC(CCSC)C(N)=O)C(=O)CN(C)C(=O)CN(CC(C)C)C(=O)CN(CCCCN)C(=O)CN(CCCCN)C(=O)CN(C)C(=O)CNc1ccc(C(=O)c2ccccc2)cc1 (stereo not shown) [JM3A-4,8-BP] (H-[N(4-BzPh)Gly][Sar][Nlys][Nlys][Nleu][Sar][Nme]KM-NH2; configuration not given here)

IC50 (H1299 cells [2]): ~6 µM
SMILES: COCCN(CC(=O)N[C@@H](CCCCN)C(=O)N[C@@H](CCSC)C(=O)NCC(=O)NCCCC[C@H](NC(=O)CNC(=O)[C@H](CCSC)NC(=O)[C@H](CCCCN)NC(=O)CN(CCOC)C(=O)CN(Cc1ccc2c(c1)OCO2)C(=O)CN(CC(C)C)C(=O)CN(CCCCN)C(=O)CN(CCCCN)C(=O)CN(CC(C)C)C(=O)CNc1ccc(C(=O)c2ccccc2)cc1)C(N)=O)C(=O)CN(Cc1ccc2c(c1)OCO2)C(=O)CN(CC(C)C)C(=O)CN(CCCCN)C(=O)CN(CCCCN)C(=O)CN(CC(C)C)C(=O)CNc1ccc(C(=O)c2ccccc2)cc1 [L2] (I: H-[N(4-BzPh)Gly][Nleu][Nlys][Nlys][Nleu][Gly(N-piperonyl)][Nme]KMGK-NH2 / II: H-[N(4-BzPh)Gly][Nleu][Nlys][Nlys][Nleu][Gly(N-piperonyl)][Nme]KMG; amide I:11-II:C)

From patent publication US20240352068A1, “VIMENTIN TARGETED PEPTOIDS FOR EARLY DIAGNOSIS AND TREATMENT OF CANCER” (UNIVERSITY OF HOUSTON SYSTEM, priority 2021, published 2024)
